As a reminder, the IC50 is the point on the concentration scale where inhibition reaches its midpoint.

From patent publication EP1087941B9, “THIOLESTERS AND USES THEREOF” (THE UNITED STATES OF AMERICA, as represented by THE …, priority 1998, dated 1999) come the findings set out here.

In one data set the test system is CEM-SS cells. Kind of data set: cells. In kind it is cell-based.
In data set [1] the target is T1, recombinant HIV-1 NCp7 protein (Human immunodeficiency virus type 1 group M subtype B, UniProt P03347).
T1 construct: within the nucleocapsid p7 (NCp7) protein portion of the polyprotein
Kind of data set: Trp37 zinc finger fluorescence (zinc ejection) assay. In kind it is biochemical. Particulars: for zinc finger reactivity in the presence of glutathione: 2 molar excess of glutathione; for Zinc Finger Reactivity, decrease in relative fluorescence units per 30 min. / Zinc Finger Reactivity, percent total decrease in flourescence: Table 7; for Zinc Finger Reactivity, percent total decrease in flourescence: value in parenthesis; for percent decrease in total Trp37 fluorescence (zinc ejection) at 2000 µM: 30 min incubation, read-out: Zinc Finger Reactivity % Decrease; for Zinc Finger Reactivity % Decrease: total percent decrease during a 30 min incubation; for zinc finger reactivity: result in words. On the set-up: Zinc Finger Reactivity, percent total decrease in flourescence / Zinc Finger Reactivity % Decrease: concentration or dose not given beside the values.

The next data set has as its system U1 cells. Nature of the data set: Cell viability of TNFα-induced U1 cells. Particulars: for cellular toxicity: high test dose of 100 µM; for toxicity: higher dose testing (300 µM). In kind it is cell-based. On the procedure: Thiolester compounds were also tested for their ability to inhibit HIV-1 replication in TNFα-induced U1 and ACH-2 cells. U1 cells were induced with 5 ng/ml of TNFα in the presence of various concentrations of the thiolesters 44, 45 or 47. Forty-eight hours later the cultures were characterized for virus p24 antigen production and cell viability. […] Compound 44 killed 60% of the cells at 200 µM. […] Precursor processing evaluation performed as described by Turpin (1997) Antiviral Chem. Chemother. 8:60-69. Thus, thiolester PATEs initiate intracellular disulfide cross-linking of precursor polyproteins during late phase virus assembly and mediate a direct virucidal effect via an attack on the mature NCp7 retroviral zinc fingers in the cell-free virus.

[2] abbreviates: Homo sapiens, CEM-SS, Table 5, 50% cytotoxicity, read-out: Antiviral Activity IC50%.
Where [3] appears, read: Homo sapiens, CEM-SS, Table 6, 50% cytotoxicity, read-out: Antiviral Activity IC50.
Setting [4] is: Table 5, average decrease in relative fluorescence units over 30 min.
[5] abbreviates: Table 6, average decrease in relative fluorescence units over 30 min.
Setting [6] is: Table 8, GSH +: compounds (2 mM) treated 2 h at 37°C with 4 mM reduced glutathione.

Structures are written as SMILES. Where two headings read alike, the source gives them in different places.

Take `CC(=O)NS(=O)(=O)c1ccc(NC(=O)c2ccccc2SC(=O)CCCCBr)cc1` [Compound 44, N-[2-(5-bromovaleroylthio)benzoyl]sulfacetamide]: the IC50 in the data set on CEM-SS cells (setting [2]) was found to be 184 µM. The IC50 in the data set with CEM-SS cells (setting [3]) is 184 µM. In addition, in data set [1], the “zinc finger reactivity in the presence of glutathione” value is given as “maintained the capacity to attack the cysteine thiols”; the “Zinc Finger Reactivity, decrease in relative fluorescence units per 30 min.” value stood at 1.8 RFU/30 MIN; the “Zinc Finger Reactivity, percent total decrease in flourescence” value was 13.3%; the zinc finger reactivity result is “promoted metal ion (zinc) ejection”. Also, the “Zinc Finger Reactivity RFU/ min” value in data set [1] (setting [4]) was 1.8 RFU/ min. Further, the “Zinc Finger Reactivity RFU/ min” value in data set [1] (setting [5]) turned out to be 1.8 RFU/ min. In data set [1] (setting [6]), the “Zinc Finger Reactivity RFU/ min” value was 2.4 RFU/min and the percent decrease in total Trp37 fluorescence (zinc ejection) at 2000 µM was found to be 28%. In data set [1] (Table 8, GSH -), the “Zinc Finger Reactivity RFU/ min” value was 6.5 RFU/min and the “Zinc Finger Reactivity % Decrease” value is 60.1%. The cells killed in the data set with U1 cells (at 200 µM) stood at 60%. The cellular toxicity result in the data set with U1 cells is “No cellular toxicity was evident”.
Turning to `CC(=O)NS(=O)(=O)c1ccc(NC(=O)c2ccccc2SC(=O)CCCC[n+]2ccccc2)cc1` [Compound 45, N-[2-(5-pyridinio-valeroylthio)benzoyl]sulfacetamide bromide], the IC50 with CEM-SS cells (setting [2]) is over 316 µM. The IC50 in the data set with CEM-SS cells (setting [3]) is over 316 µM. Moreover, the IC50 in the data set with CEM-SS cells (Table 10, 50% cytotoxicity, read-out: Antiviral Activity IC50%) was over 316 µM. Moreover, the “toxicity at the high test dose” value in the data set with CEM-SS cells (high test dose of 316 µM) is recorded as “no toxicity”. Further, in data set [1], the “zinc finger reactivity / zinc ejection rate” value turned out to be 3.6 RFU/min; the “zinc finger reactivity in the presence of glutathione” value is on record as “maintained the capacity to attack the cysteine thiols”; the “Zinc Finger Reactivity, decrease in relative fluorescence units per 30 min.” value was 3.6 RFU/30 MIN; the “Zinc Finger Reactivity, percent total decrease in flourescence” value amounted to 34.7%. Further, the zinc finger reactivity entry in data set [1] is listed as “promoted metal ion (zinc) ejection”. The “Zinc Finger Reactivity RFU/ min” value in data set [1] (setting [4]) turned out to be 3.6 RFU/ min. Further, in data set [1] (setting [5]), the “Zinc Finger Reactivity RFU/ min” value is recorded as 3.6 RFU/ min. Besides, in data set [1] (setting [6]), the “Zinc Finger Reactivity RFU/ min” value was found to be 3.8 RFU/min and the percent decrease in total Trp37 fluorescence (zinc ejection) at 2000 µM was determined as 36.9%. Further, in data set [1] (Table 8, GSH -), the “Zinc Finger Reactivity RFU/ min” value is given as 2.6 RFU/min and the “Zinc Finger Reactivity % Decrease” value is given as 28.2%. Moreover, the “Zinc Finger Reactivity RFU/ min” value in data set [1] (Table 10, average decrease in relative fluorescence units over 30 min) is recorded as 3.6 RFU/ min. In the data set with U1 cells, the cellular toxicity result is “No cellular toxicity was evident” and the toxicity result is on record as “no toxicity”.
As to `O=C(CCCC[n+]1ccccc1)Sc1ccccc1C(=O)Nc1ccc(S(=O)(=O)c2ccc([N+](=O)[O-])cc2)cc1` [Compound 47], in the data set with CEM-SS cells (Homo sapiens, CEM-SS, read-out: Antiviral Activity IC50), the IC50 is over 316 µM. In data set [1], the “zinc finger reactivity in the presence of glutathione” value is listed as “maintained the capacity to attack the cysteine thiols”; the “Zinc Finger Reactivity, decrease in relative fluorescence units per 30 min.” value came to 4.1 RFU/30 MIN; the “Zinc Finger Reactivity, percent total decrease in flourescence” value is given as 17.9%; the zinc finger reactivity result was “promoted metal ion (zinc) ejection”. Besides, in data set [1] (setting [5]), the “Zinc Finger Reactivity RFU/ min” value amounted to 4.1 RFU/ min. Also, in data set [1] (setting [6]), the “Zinc Finger Reactivity RFU/ min” value was determined as 1.6 RFU/min and the percent decrease in total Trp37 fluorescence (zinc ejection) at 2000 µM was 21.1%. Besides, in data set [1] (Table 8, GSH -), the “Zinc Finger Reactivity RFU/ min” value is recorded as 1.6 RFU/min and the “Zinc Finger Reactivity % Decrease” value amounted to 24.3%. Moreover, in the data set with U1 cells, the cellular toxicity result is “No cellular toxicity was evident” and the toxicity result is listed as “no toxicity”.
